# From ChEMBL document CHEMBL1149685, “Novel tethers in ketolide antibiotics” (2007)
# Active and inactive are the calls of the source. No cut-off for these calls is given here.
# Experiments:
# Format in all cases: functional
# Streptococcus pneumoniae [1] = assay: Antibacterial activity against erythromycin-resistant mef expressing Streptococcus pneumoniae 1175
# Streptococcus pyogenes [2] = assay: Antibacterial activity against erythromycin-resistant ermB expressing Streptococcus pyogenes 1079
# Haemophilus influenzae [3] = assay: Antimicrobial activity against Haemophilus influenzae 1325
# Streptococcus pneumoniae [4] = assay: Antibacterial activity against erythromycin-resistant ermB expressing Streptococcus pneumoniae 1095
# Streptococcus pyogenes [5] = assay: Antibacterial activity against erythromycin-resistant Streptococcus pyogenes 1068 in mouse soft tissue infection model assessed as reduction in bacterial count at 100 mg/kg, po after 24 hrs
# Haemophilus influenzae [6] = assay: Antibacterial activity against Haemophilus influenzae 1100 in po dosed gerbils
# Streptococcus pneumoniae [7] = assay: Protection against erythromycin-resistant Streptococcus pneumoniae 1095 infection in po dosed mouse after 4 days
# [8] = Streptococcus pneumoniae, read-out: MIC
compound,measurement,setting,value
CC[C@H]1OC(=O)[C@@](C)(F)C(=O)[C@H](C)[C@@H](O[C@@H]2O[C@H](C)C[C@H](N(C)C)[C@H]2O)[C@](C)(OC)C[C@@H](C)C(=O)[C@H](C)[C@H]2N(CNC(=O)OCc3cccc4nccnc34)C(=O)O[C@]12C,MIC,Streptococcus pneumoniae [1],< 0.063 µg/mL
same,MIC,Streptococcus pyogenes [2],22.6 µg/mL
same,MIC,Haemophilus influenzae [3],4 µg/mL
same,MIC,Streptococcus pneumoniae [4]; [8],< 0.063 µg/mL
CC[C@H]1OC(=O)[C@H](C)C(=O)[C@H](C)[C@@H](O[C@@H]2O[C@H](C)C[C@H](N(C)C)[C@H]2O)[C@](C)(OC)C[C@@H](C)C(=O)[C@H](C)[C@H]2N(CNC(=O)Nc3cnc4ccccc4c3)C(=O)O[C@]12C,MIC,Streptococcus pneumoniae [1],< 0.063 µg/mL
same,MIC,Streptococcus pyogenes [2],> 64 µg/mL
same,MIC,Haemophilus influenzae [3],16 µg/mL
same,MIC,Streptococcus pneumoniae [4]; [8],0.25 µg/mL
CC[C@H]1OC(=O)[C@H](C)C(=O)[C@H](C)[C@@H](O[C@@H]2O[C@H](C)C[C@H](N(C)C)[C@H]2O)[C@](C)(OC)C[C@@H](C)C(=O)[C@H](C)[C@H]2N(CNC(=O)OCc3ccc4cccnc4c3)C(=O)O[C@]12C,MIC,Streptococcus pneumoniae [1],< 0.063 µg/mL
same,MIC,Streptococcus pyogenes [2],64 µg/mL
same,MIC,Haemophilus influenzae [3],4 µg/mL
same,MIC,Streptococcus pneumoniae [4]; [8],< 0.063 µg/mL
CC[C@H]1OC(=O)[C@H](C)C(=O)[C@H](C)[C@@H](O[C@@H]2O[C@H](C)C[C@H](N(C)C)[C@H]2O)[C@](C)(OC)C[C@@H](C)C(=O)[C@H](C)[C@H]2N(CNC(=O)OCc3ccc4nccnc4c3)C(=O)O[C@]12C,MIC,Streptococcus pneumoniae [1],< 0.063 µg/mL
same,MIC,Streptococcus pyogenes [2],16 µg/mL
same,MIC,Haemophilus influenzae [3],2 µg/mL
same,MIC,Streptococcus pneumoniae [4]; [8],< 0.063 µg/mL
CC[C@H]1OC(=O)[C@@](C)(F)C(=O)[C@H](C)[C@@H](O[C@@H]2O[C@H](C)C[C@H](N(C)C)[C@H]2O)[C@](C)(OC)C[C@@H](C)C(=O)[C@H](C)[C@H]2N(CNC(=O)NCc3ccc4nccnc4c3)C(=O)O[C@]12C,MIC,Streptococcus pneumoniae [1],< 0.063 µg/mL
same,MIC,Streptococcus pyogenes [2],1 µg/mL
same,MIC,Haemophilus influenzae [3],1 µg/mL
same,MIC,Streptococcus pneumoniae [4]; [8],< 0.063 µg/mL
CC[C@H]1OC(=O)[C@H](C)C(=O)[C@H](C)[C@@H](O[C@@H]2O[C@H](C)C[C@H](N(C)C)[C@H]2O)[C@](C)(OC)C[C@@H](C)C(=O)[C@H](C)[C@H]2N(CCNC(=O)NCc3cnc4ccccc4c3)C(=O)O[C@]12C,MIC,Streptococcus pneumoniae [1],0.5 µg/mL
same,MIC,Streptococcus pyogenes [2],> 64 µg/mL
same,MIC,Haemophilus influenzae [3],16 µg/mL
same,MIC,Streptococcus pneumoniae [4]; [8],> 64 µg/mL
CC[C@H]1OC(=O)[C@H](C)C(=O)[C@H](C)[C@@H](O[C@@H]2O[C@H](C)C[C@H](N(C)C)[C@H]2O)[C@](C)(OC)C[C@@H](C)C(=O)[C@H](C)[C@H]2N(CNC(=O)NCc3cncc4ccccc34)C(=O)O[C@]12C,MIC,Streptococcus pneumoniae [1],< 0.063 µg/mL
same,MIC,Streptococcus pyogenes [2],16 µg/mL
same,MIC,Haemophilus influenzae [3],4 µg/mL
same,MIC,Streptococcus pneumoniae [4]; [8],< 0.063 µg/mL
CC[C@H]1OC(=O)[C@H](C)C(=O)[C@H](C)[C@@H](O[C@@H]2O[C@H](C)C[C@H](N(C)C)[C@H]2O)[C@](C)(OC)C[C@@H](C)C(=O)[C@H](C)[C@H]2N(CCCCn3cnc(-c4cccnc4)c3)C(=O)O[C@]12C [TELITHROMYCIN],MIC,Streptococcus pneumoniae [1],0.378 µg/mL
same,Activity,Streptococcus pyogenes [5],inactive
same,MIC,Streptococcus pyogenes [2],18 µg/mL
same,ED50,Haemophilus influenzae [6],27.5 mg/kg
same,PD50,Streptococcus pneumoniae [7],71.5 mg/kg
same,MIC,Haemophilus influenzae [3],3.9 µg/mL
same,MIC,Streptococcus pneumoniae [4]; [8],< 0.063 µg/mL
CC[C@H]1OC(=O)[C@H](C)C(=O)[C@H](C)[C@@H](O[C@@H]2O[C@H](C)C[C@H](N(C)C)[C@H]2O)[C@](C)(OC)C[C@@H](C)C(=O)[C@H](C)[C@H]2N(CNC(=O)OCc3cnc4ccccc4n3)C(=O)O[C@]12C,MIC,Streptococcus pneumoniae [1],0.25 µg/mL
same,MIC,Streptococcus pyogenes [2],> 64 µg/mL
same,MIC,Haemophilus influenzae [3],8 µg/mL
same,MIC,Streptococcus pneumoniae [4]; [8],0.25 µg/mL
CC[C@H]1OC(=O)[C@H](C)C(=O)[C@H](C)[C@@H](O[C@@H]2O[C@H](C)C[C@H](N(C)C)[C@H]2O)[C@](C)(OC)C[C@@H](C)C(=O)[C@H](C)[C@H]2N(CNC(=O)OCc3cccc4ncccc34)C(=O)O[C@]12C,MIC,Streptococcus pneumoniae [1],0.125 µg/mL
same,MIC,Streptococcus pyogenes [2],16 µg/mL
same,MIC,Haemophilus influenzae [3],32 µg/mL
same,MIC,Streptococcus pneumoniae [4]; [8],0.125 µg/mL
CC[C@H]1OC(=O)[C@H](C)C(=O)[C@H](C)[C@@H](O[C@@H]2O[C@H](C)C[C@H](N(C)C)[C@H]2O)[C@](C)(OC)C[C@@H](C)C(=O)[C@H](C)[C@H]2N(CNC(=O)NCc3ccc4cccnc4c3)C(=O)O[C@]12C,MIC,Streptococcus pneumoniae [1],0.5 µg/mL
same,MIC,Streptococcus pyogenes [2],64 µg/mL
same,MIC,Haemophilus influenzae [3],4 µg/mL
same,MIC,Streptococcus pneumoniae [4]; [8],< 0.063 µg/mL
CC[C@H]1OC(=O)[C@H](C)C(=O)[C@H](C)[C@@H](O[C@@H]2O[C@H](C)C[C@H](N(C)C)[C@H]2O)[C@](C)(OC)C[C@@H](C)C(=O)[C@H](C)[C@H]2N(CCNC(=O)OCc3cnc4ccccc4c3)C(=O)O[C@]12C,MIC,Streptococcus pneumoniae [1],0.125 µg/mL
same,MIC,Streptococcus pyogenes [2],> 64 µg/mL
same,MIC,Haemophilus influenzae [3],32 µg/mL
same,MIC,Streptococcus pneumoniae [4],> 64 µg/mL
CC[C@H]1OC(=O)[C@H](C)C(=O)[C@H](C)[C@@H](O[C@@H]2O[C@H](C)C[C@H](NC)[C@H]2O)[C@](C)(OC)C[C@@H](C)C(=O)[C@H](C)[C@H]2N(CNC(=O)OCc3cnc4ccccc4c3)C(=O)O[C@]12C,MIC,Streptococcus pneumoniae [1],< 0.063 µg/mL
same,MIC,Streptococcus pyogenes [2],64 µg/mL
same,MIC,Haemophilus influenzae [3],8 µg/mL
same,MIC,Streptococcus pneumoniae [4]; [8],< 0.063 µg/mL
CC[C@H]1OC(=O)[C@H](C)C(=O)[C@H](C)[C@@H](O[C@@H]2O[C@H](C)C[C@H](N(C)C)[C@H]2O)[C@](C)(OC)C[C@@H](C)C(=O)[C@H](C)[C@H]2N(CNC(=O)NCc3cnc4ccccc4n3)C(=O)O[C@]12C,MIC,Streptococcus pneumoniae [1],0.25 µg/mL
same,MIC,Streptococcus pyogenes [2],> 64 µg/mL
same,MIC,Haemophilus influenzae [3],4 µg/mL
same,MIC,Streptococcus pneumoniae [4]; [8],< 0.063 µg/mL
CC[C@H]1OC(=O)[C@H](C)C(=O)[C@H](C)[C@@H](O[C@@H]2O[C@H](C)C[C@H](N(C)C)[C@H]2O)[C@](C)(OC)C[C@@H](C)C(=O)[C@H](C)[C@H]2N(CNC(=O)NCc3ccc4nccnc4c3)C(=O)O[C@]12C,MIC,Streptococcus pneumoniae [1],0.25 µg/mL
same,MIC,Streptococcus pyogenes [2],2 µg/mL
same,MIC,Haemophilus influenzae [3],2 µg/mL
same,MIC,Streptococcus pneumoniae [4]; [8],< 0.063 µg/mL
CC[C@H]1OC(=O)[C@H](C)C(=O)[C@H](C)[C@@H](O[C@@H]2O[C@H](C)C[C@H](N(C)C)[C@H]2O)[C@](C)(OC)C[C@@H](C)C(=O)[C@H](C)[C@H]2N(CNC(=O)OCc3ccc4ncccc4c3)C(=O)O[C@]12C,MIC,Streptococcus pneumoniae [1],< 0.063 µg/mL
same,MIC,Streptococcus pyogenes [2],8 µg/mL
same,MIC,Haemophilus influenzae [3],2 µg/mL
same,MIC,Streptococcus pneumoniae [4]; [8],0.25 µg/mL
CC[C@H]1OC(=O)[C@H](C)C(=O)[C@H](C)[C@@H](O[C@@H]2O[C@H](C)C[C@H](N(C)C)[C@H]2O)[C@](C)(OC)C[C@@H](C)C(=O)[C@H](C)[C@H]2N(CNC(=O)OCc3ccnc4ccccc34)C(=O)O[C@]12C,MIC,Streptococcus pneumoniae [1],< 0.063 µg/mL
same,MIC,Streptococcus pyogenes [2],64 µg/mL
same,MIC,Haemophilus influenzae [3],8 µg/mL
same,MIC,Streptococcus pneumoniae [4]; [8],0.5 µg/mL
CC[C@H]1OC(=O)[C@H](C)C(=O)[C@H](C)[C@@H](O[C@@H]2O[C@H](C)C[C@H](N(C)C)[C@H]2O)[C@](C)(OC)C[C@@H](C)C(=O)[C@H](C)[C@H]2N(CNC(=O)NCc3ccc4ncccc4c3)C(=O)O[C@]12C,MIC,Streptococcus pneumoniae [1],0.125 µg/mL
same,MIC,Streptococcus pyogenes [2],4 µg/mL
same,MIC,Haemophilus influenzae [3],1 µg/mL
same,MIC,Streptococcus pneumoniae [4]; [8],0.25 µg/mL
CC[C@H]1OC(=O)[C@@](C)(F)C(=O)[C@H](C)[C@@H](O[C@@H]2O[C@H](C)C[C@H](N(C)C)[C@H]2O)[C@](C)(OC)C[C@@H](C)C(=O)[C@H](C)[C@H]2N(CNC(=O)OCc3ccc4nccnc4c3)C(=O)O[C@]12C,MIC,Streptococcus pneumoniae [1],< 0.063 µg/mL
same,Log10 cfu,Streptococcus pyogenes [5],2.3
same,MIC,Streptococcus pyogenes [2],1 µg/mL
same,ED50,Haemophilus influenzae [6],39.5 mg/kg
same,PD50,Streptococcus pneumoniae [7],71.2 mg/kg
same,MIC,Haemophilus influenzae [3],2 µg/mL
same,MIC,Streptococcus pneumoniae [4]; [8],< 0.063 µg/mL
